Data on 13 molecules can be found in ChEMBL document CHEMBL1201862, “PubChem BioAssay data set” (2004).

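Exposure lasted 48 hours, with cells grown in 96-well plates and compounds tested at five concentrations. At the GI50, growth is halved.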 Active and inactive are the calls of the source. No stated cut-off is given here; in the data, active = GI50 up to about 1.1 µM and inactive = higher.

Among the test systems are UO-31; A498; HCC 2998; SF-295; U-251; SK-OV-3; KM12; A549; NCI-H460; IGROV-1; HT-29; OVCAR-3; LOX IMVI; COLO 205; PC-3; MDA-MB-231; MDA-MB-435; T47D; Hs-578T.
Holding throughout (assay): inhibition of tumour cell growth, NCI panel, 48 h

Regarding `CC1(c2ccc[n+](Cc3ccccc3)c2)OCCO1`, the GI50 with UO-31, in the experiment on A498, in the experiment with HCC 2998, with SF-295, in the experiment on U-251 and in the experiment on SK-OV-3 was > 100 µM (inactive) each time. Further, the GI50 in the experiment with KM12, in the experiment on A549, with NCI-H460, with IGROV-1, in the experiment with HT-29 and in the experiment with OVCAR-3 was > 100 µM (inactive) throughout. In addition, the GI50 in the experiment on LOX IMVI and with COLO 205 was > 100 µM (inactive) throughout.

`O=C1[C@H]2ON(c3ccccc3)C(c3ccc([N+](=O)[O-])cc3)[C@H]2C(=O)N1c1ccc(Cc2ccc(N3C(=O)[C@@H]4ON(c5ccccc5)C(c5ccc([N+](=O)[O-])cc5)[C@@H]4C3=O)cc2)cc1` (stereo partly specified): the GI50 in the experiment on UO-31, in the experiment with A498, in the experiment with HCC 2998, in the experiment on SF-295, with U-251 and in the experiment with SK-OV-3 was > 100 µM (inactive) in each case. The GI50 in the experiment with KM12, in the experiment with A549, in the experiment on NCI-H460, with IGROV-1, with HT-29 and in the experiment with OVCAR-3 was > 100 µM (inactive) in each case. In addition, the GI50 in the experiment on LOX IMVI was > 100 µM (inactive); in the experiment with COLO 205 it was 58.7 µM (inactive).

As to `CC1(O)CC23CC(O)C4(O)C(CC(O)C4(C)C)C(C)(O)C2CCC1C3O` (stereo unspecified), the GI50 with UO-31, in the experiment on A498, in the experiment with HCC 2998, in the experiment with SF-295, in the experiment with U-251 and in the experiment with SK-OV-3 was > 100 µM (inactive) in each case. In addition, the GI50 with PC-3, in the experiment on KM12, in the experiment on MDA-MB-231, with A549, in the experiment with NCI-H460 and in the experiment with IGROV-1 was > 100 µM (inactive) in each case. Also, the GI50 in the experiment with HT-29, in the experiment with MDA-MB-435, with T47D, with LOX IMVI, with Hs-578T and in the experiment on COLO 205 was > 100 µM (inactive) each time.

For the molecule `C[C@]12CCC(=O)C=C1CC[C@@H]1[C@@H]2[C@@H](O)C[C@@]2(C)[C@H]1CC[C@]2(O)C(=O)COC(=O)CCC1CCCC1` [HYDROCORTISONE CYPIONATE], the GI50 in the experiment with UO-31 was > 100 µM (inactive); in the experiment with A498, > 100 µM (inactive); in the experiment on HCC 2998 it was > 100 µM (inactive); in the experiment on SF-295, > 100 µM (inactive); with U-251, > 100 µM (inactive); in the experiment on SK-OV-3 it was 5.83 µM (inactive). Also, the GI50 in the experiment with KM12, in the experiment on A549, in the experiment with NCI-H460, with IGROV-1, in the experiment with HT-29 and in the experiment on OVCAR-3 was > 100 µM (inactive) in each case. In addition, the GI50 with LOX IMVI and in the experiment on COLO 205 was > 100 µM (inactive) in each case.

As to `CC(=O)Oc1cc2c(cc1OC(C)=O)OCC(c1ccc(C)cc1)C2` (stereo unspecified), the GI50 in the experiment on UO-31 was 20.6 µM (inactive); in the experiment with A498 it was 8.69 µM (inactive); in the experiment on HCC 2998, 12.6 µM (inactive); in the experiment with SF-295 it was 28.7 µM (inactive); in the experiment on U-251, 9.91 µM (inactive); in the experiment on SK-OV-3 it was 53.7 µM (inactive). For the same molecule, the GI50 in the experiment with KM12 is 21.6 µM (inactive); with A549, 16 µM (inactive); with NCI-H460, 15.1 µM (inactive); with IGROV-1 it was 20.3 µM (inactive); with HT-29, 29.2 µM (inactive); with OVCAR-3, 21.6 µM (inactive). Also, the figures for the GI50 with LOX IMVI and with COLO 205 were 18.7 µM (inactive) and 20.5 µM (inactive), respectively.

For `c1cc2c3c(c1)c1cc4c(cc1c[n+]3CC2)OCO4` [ANHYDROLYCORINIUM CHLORIDE], the GI50 is > 127 µM (inactive) in the experiment with UO-31; 2.37 µM (inactive) in the experiment on A498; 2.75 µM (inactive) in the experiment on HCC 2998; 0.802 µM (active) in the experiment with SF-295; 0.811 µM (active) in the experiment on U-251; 10.2 µM (inactive) in the experiment with SK-OV-3. The GI50 in the experiment on KM12 is 0.582 µM (active); in the experiment with A549, 1.15 µM (inactive); in the experiment on NCI-H460, 3.73 µM (inactive); in the experiment with IGROV-1, 4.02 µM (inactive); in the experiment on HT-29 it was 7.4 µM (inactive); in the experiment on OVCAR-3, 3.4 µM (inactive). Besides, the values for the GI50 in the experiment on LOX IMVI and in the experiment on COLO 205 were 25.5 µM (inactive) and 2.74 µM (inactive), respectively.

For the molecule `COc1ccccc1NC(=O)C1=C(C)NC(C)=C(C(=O)Nc2ccccc2OC)C1c1ccc(N(C)C)cc1`, the GI50 in the experiment on UO-31 was 36 µM (inactive); with A498, 32.8 µM (inactive); in the experiment on HCC 2998, 14.5 µM (inactive); in the experiment with SF-295, 38 µM (inactive); with U-251 it was 30.4 µM (inactive); in the experiment on SK-OV-3, 38.7 µM (inactive). Besides, the GI50 was 21.6 µM (inactive) in the experiment on KM12; 42.6 µM (inactive) in the experiment on A549; 27.5 µM (inactive) in the experiment on NCI-H460; 33.4 µM (inactive) in the experiment with IGROV-1; 45.4 µM (inactive) in the experiment on HT-29; 19.1 µM (inactive) in the experiment with OVCAR-3. Moreover, the GI50 in the experiment with LOX IMVI is 15.4 µM (inactive); in the experiment on COLO 205, 31 µM (inactive).

For the molecule `CC(=O)NNc1nc(C)c(C(=O)NNC(=O)C(=O)Nc2c(C)cccc2C(C)C)s1`, the GI50 is > 100 µM (inactive) in the experiment on UO-31; 51.4 µM (inactive) in the experiment with A498; > 100 µM (inactive) with HCC 2998; 89.9 µM (inactive) in the experiment on SF-295; 5.97 µM (inactive) in the experiment on U-251; > 100 µM (inactive) in the experiment on SK-OV-3. For the same molecule, the GI50 is 95.7 µM (inactive) with KM12; 61 µM (inactive) in the experiment on A549; 86.3 µM (inactive) with NCI-H460; > 100 µM (inactive) in the experiment with IGROV-1; > 100 µM (inactive) with HT-29; 36.9 µM (inactive) in the experiment with OVCAR-3. Further, the values for the GI50 in the experiment with LOX IMVI and in the experiment on COLO 205 were 55.5 µM (inactive) and > 100 µM (inactive), respectively.

For `CCOC(=O)C1=C(OC(OCC)C(C)[Se]c2ccccc2)CCC1` (stereo unspecified), the GI50 in the experiment on UO-31 was 24.7 µM (inactive); in the experiment on A498, > 100 µM (inactive); in the experiment on HCC 2998, 78.3 µM (inactive); in the experiment on SF-295, 19.8 µM (inactive); in the experiment on U-251, 6.78 µM (inactive); with SK-OV-3, 94 µM (inactive). The GI50 in the experiment with KM12 was 59 µM (inactive); with A549, 49.9 µM (inactive); in the experiment on NCI-H460 it was 25.4 µM (inactive); with IGROV-1, 26.4 µM (inactive); in the experiment with HT-29, 28.1 µM (inactive); in the experiment with OVCAR-3, 14.7 µM (inactive). Moreover, the GI50 in the experiment on LOX IMVI is 7.21 µM (inactive); in the experiment on COLO 205 it was 25.1 µM (inactive).

For `O=P(NCCCO)(OCc1ccccc1)N(CCCl)CCCl` (stereo unspecified), the GI50 in the experiment with UO-31, in the experiment on A498, with HCC 2998, with SF-295, with U-251 and in the experiment with SK-OV-3 was > 100 µM (inactive) in each case. The GI50 in the experiment with KM12 is > 100 µM (inactive); in the experiment with A549, > 100 µM (inactive); with NCI-H460, > 100 µM (inactive); with IGROV-1, > 74.5 µM (inactive); in the experiment on HT-29, > 100 µM (inactive); in the experiment on OVCAR-3, > 100 µM (inactive). The GI50 in the experiment with LOX IMVI and with COLO 205 was > 100 µM (inactive) throughout.

On to `Cc1ccc(C(=O)C(C)N)cc1C` (stereo unspecified), for which the GI50 in the experiment with UO-31, in the experiment with A498, in the experiment with HCC 2998, with SF-295, in the experiment with U-251 and with SK-OV-3 was > 100 µM (inactive) in each case. For the same molecule, the GI50 in the experiment with KM12, in the experiment on A549, with NCI-H460, with IGROV-1, in the experiment with HT-29 and in the experiment with OVCAR-3 was > 100 µM (inactive) each time. Further, the GI50 with LOX IMVI and with COLO 205 was > 100 µM (inactive) throughout.

As for `N=C(N)SCc1cccc([N+](=O)[O-])c1`, the GI50 with UO-31 is 36.8 µM (inactive); in the experiment on A498 it was 25.1 µM (inactive); with HCC 2998 it was 34.1 µM (inactive); in the experiment with SF-295, 38.9 µM (inactive); in the experiment on U-251, 44.7 µM (inactive); in the experiment on SK-OV-3, > 57.1 µM (inactive). Besides, the GI50 was 24.4 µM (inactive) with KM12; 39.7 µM (inactive) in the experiment with A549; 34.1 µM (inactive) with NCI-H460; 57.7 µM (inactive) in the experiment on IGROV-1; 30.1 µM (inactive) in the experiment with HT-29; 18.6 µM (inactive) in the experiment on OVCAR-3. Further, the GI50 in the experiment on LOX IMVI was 31.9 µM (inactive); in the experiment on COLO 205 it was 21.5 µM (inactive).

Regarding `Cc1ccccc1NC(=O)c1c(C)oc2c1C(=O)c1ccccc1C2=O`, the GI50 was > 85.3 µM (inactive) with UO-31; 63.5 µM (inactive) with A498; 51.5 µM (inactive) in the experiment with HCC 2998; 40.3 µM (inactive) in the experiment on SF-295; 7.89 µM (inactive) in the experiment on U-251; > 100 µM (inactive) in the experiment with SK-OV-3. The GI50 in the experiment with KM12 is 30.9 µM (inactive); with A549 it was 32.7 µM (inactive); in the experiment on NCI-H460, 32.4 µM (inactive); with IGROV-1, > 71.9 µM (inactive); in the experiment with HT-29, 35.9 µM (inactive); in the experiment with OVCAR-3, 14.4 µM (inactive). Further, the GI50 is 16 µM (inactive) with LOX IMVI and 53.3 µM (inactive) in the experiment on COLO 205.
